Experiments:
Parameters in all cases: scale not given: the % may be the effect or the level left
[1] = target: Aurora kinase B (Homo sapiens) (UniProt Q96GD4); test: Inhibition of human Aurora B assessed as enzyme activity at 1 uM using H-LRRASLG as substrate preincubated for 20 mins followed by [gamma-33P]-ATP addition and measured after 120 mins by radiometric Hot-SpotSM Kinase assay relative to control
[2] = target: T1, Serine/threonine-protein kinase DCLK2 (Homo sapiens) (UniProt Q8N568); test: Inhibition of human DCAMKL2 assessed as enzyme activity at 1 uM using KKLNRTLSFAEPG as substrate preincubated for 20 mins followed by [gamma-33P]-ATP addition and measured after 120 mins by radiometric Hot-SpotSM Kinase assay relative to control
T1 sequence (whole entry): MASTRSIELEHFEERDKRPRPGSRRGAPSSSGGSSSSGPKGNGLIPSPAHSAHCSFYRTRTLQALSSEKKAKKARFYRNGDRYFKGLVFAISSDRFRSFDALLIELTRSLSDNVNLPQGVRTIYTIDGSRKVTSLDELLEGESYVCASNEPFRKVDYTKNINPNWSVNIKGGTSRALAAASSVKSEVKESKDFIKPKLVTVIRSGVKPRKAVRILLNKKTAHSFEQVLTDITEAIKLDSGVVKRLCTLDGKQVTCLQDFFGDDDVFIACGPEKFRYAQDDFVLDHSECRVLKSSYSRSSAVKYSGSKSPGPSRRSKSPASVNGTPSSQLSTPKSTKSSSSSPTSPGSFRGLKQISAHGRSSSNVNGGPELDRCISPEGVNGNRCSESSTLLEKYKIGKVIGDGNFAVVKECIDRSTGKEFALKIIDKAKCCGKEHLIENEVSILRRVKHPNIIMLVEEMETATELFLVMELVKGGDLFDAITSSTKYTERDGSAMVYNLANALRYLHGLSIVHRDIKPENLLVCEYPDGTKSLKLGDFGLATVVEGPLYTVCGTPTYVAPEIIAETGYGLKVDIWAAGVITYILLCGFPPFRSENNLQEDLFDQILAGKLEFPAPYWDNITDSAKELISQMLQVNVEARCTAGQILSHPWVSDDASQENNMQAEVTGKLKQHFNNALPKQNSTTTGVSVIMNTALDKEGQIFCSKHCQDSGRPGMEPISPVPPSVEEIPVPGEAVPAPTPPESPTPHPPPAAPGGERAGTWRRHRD

[3] = target: Serine/threonine-protein kinase MRCK gamma (Homo sapiens) (UniProt Q6DT37); test: Inhibition of human DMPK2 assessed as enzyme activity at 1 uM using KKRPQRRYSNVF as substrate preincubated for 20 mins followed by [gamma-33P]-ATP addition and measured after 120 mins by radiometric Hot-SpotSM Kinase assay relative to control
[4] = target: Homeodomain-interacting protein kinase 1 (Homo sapiens) (UniProt Q86Z02); test: Inhibition of human HIPK1 assessed as enzyme activity at 1 uM using myelin basic protein as substrate preincubated for 20 mins followed by [gamma-33P]-ATP addition and measured after 120 mins by radiometric Hot-SpotSM Kinase assay relative to control
[5] = target: T2, Mitogen-activated protein kinase kinase kinase 2 (Homo sapiens) (UniProt Q9Y2U5); test: Inhibition of human MEKK2 assessed as enzyme activity at 1 uM using myelin basic protein as substrate preincubated for 20 mins followed by [gamma-33P]-ATP addition and measured after 120 mins by radiometric Hot-SpotSM Kinase assay relative to control
T2 sequence (whole entry): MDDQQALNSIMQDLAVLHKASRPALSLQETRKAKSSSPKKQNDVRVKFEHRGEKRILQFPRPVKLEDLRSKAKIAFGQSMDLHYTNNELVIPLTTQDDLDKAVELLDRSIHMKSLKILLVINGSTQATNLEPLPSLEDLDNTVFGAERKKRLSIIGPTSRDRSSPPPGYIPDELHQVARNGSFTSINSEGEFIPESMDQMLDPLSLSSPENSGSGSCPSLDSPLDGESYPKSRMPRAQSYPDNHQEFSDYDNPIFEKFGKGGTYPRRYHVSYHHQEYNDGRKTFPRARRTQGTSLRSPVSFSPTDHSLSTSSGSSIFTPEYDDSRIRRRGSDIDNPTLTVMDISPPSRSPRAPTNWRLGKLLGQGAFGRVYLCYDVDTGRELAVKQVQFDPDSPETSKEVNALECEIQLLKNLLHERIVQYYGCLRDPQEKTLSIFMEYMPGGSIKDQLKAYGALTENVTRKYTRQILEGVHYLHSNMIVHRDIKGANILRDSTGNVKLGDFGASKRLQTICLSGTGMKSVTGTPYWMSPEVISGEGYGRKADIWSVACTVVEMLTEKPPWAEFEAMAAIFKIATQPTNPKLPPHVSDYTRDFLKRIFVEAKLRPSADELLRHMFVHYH

[6] = target: T3, cGMP-dependent protein kinase 1 (Homo sapiens) (UniProt Q13976); test: Inhibition of human PKG1a assessed as enzyme activity at 1 uM using LRRASLG as substrate preincubated for 20 mins followed by [gamma-33P]-ATP addition and measured after 120 mins by radiometric Hot-SpotSM Kinase assay relative to control
T3 sequence (whole entry): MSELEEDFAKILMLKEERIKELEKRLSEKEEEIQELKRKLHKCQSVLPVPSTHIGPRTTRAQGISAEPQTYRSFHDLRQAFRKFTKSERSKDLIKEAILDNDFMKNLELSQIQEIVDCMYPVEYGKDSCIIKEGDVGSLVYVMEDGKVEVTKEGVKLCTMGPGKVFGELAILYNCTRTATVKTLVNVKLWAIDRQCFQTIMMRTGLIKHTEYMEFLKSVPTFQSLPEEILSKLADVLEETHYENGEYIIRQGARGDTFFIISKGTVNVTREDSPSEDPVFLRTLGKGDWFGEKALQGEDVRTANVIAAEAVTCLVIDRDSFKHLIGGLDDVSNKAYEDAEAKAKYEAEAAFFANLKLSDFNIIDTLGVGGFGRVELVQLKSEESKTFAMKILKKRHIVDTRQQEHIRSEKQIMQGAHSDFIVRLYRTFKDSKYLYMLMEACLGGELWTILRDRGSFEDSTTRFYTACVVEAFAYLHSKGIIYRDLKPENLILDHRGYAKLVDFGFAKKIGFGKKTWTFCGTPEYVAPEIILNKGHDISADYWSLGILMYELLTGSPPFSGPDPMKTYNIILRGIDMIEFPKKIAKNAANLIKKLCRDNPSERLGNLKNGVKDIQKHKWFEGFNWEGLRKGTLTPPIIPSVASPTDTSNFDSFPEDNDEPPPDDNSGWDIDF

[7] = target: SRSF protein kinase 1 (Homo sapiens) (UniProt Q96SB4); test: Inhibition of human SRPK1 assessed as enzyme activity at 1 uM using GRSRSRSRSR as substrate preincubated for 20 mins followed by [gamma-33P]-ATP addition and measured after 120 mins by radiometric Hot-SpotSM Kinase assay relative to control
[8] = target: Testis-specific serine/threonine-protein kinase 6 (Homo sapiens) (UniProt Q9BXA6); test: Inhibition of human SSTK assessed as enzyme activity at 1 uM using myelin basic protein as substrate preincubated for 20 mins followed by [gamma-33P]-ATP addition and measured after 120 mins by radiometric Hot-SpotSM Kinase assay relative to control
Sequence of Testis-specific serine/threonine-protein kinase 6 (Homo sapiens) (Q9BXA6 whole entry): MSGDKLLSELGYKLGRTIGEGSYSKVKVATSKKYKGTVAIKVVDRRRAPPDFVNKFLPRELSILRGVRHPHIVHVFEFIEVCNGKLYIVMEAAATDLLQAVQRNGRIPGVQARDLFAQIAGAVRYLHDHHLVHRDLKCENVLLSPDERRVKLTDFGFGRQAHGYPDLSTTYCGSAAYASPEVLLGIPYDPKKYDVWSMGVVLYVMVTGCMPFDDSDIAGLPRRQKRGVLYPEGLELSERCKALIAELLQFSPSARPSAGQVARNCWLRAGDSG

Sequence of SRSF protein kinase 1 (Homo sapiens) (Q96SB4 whole entry): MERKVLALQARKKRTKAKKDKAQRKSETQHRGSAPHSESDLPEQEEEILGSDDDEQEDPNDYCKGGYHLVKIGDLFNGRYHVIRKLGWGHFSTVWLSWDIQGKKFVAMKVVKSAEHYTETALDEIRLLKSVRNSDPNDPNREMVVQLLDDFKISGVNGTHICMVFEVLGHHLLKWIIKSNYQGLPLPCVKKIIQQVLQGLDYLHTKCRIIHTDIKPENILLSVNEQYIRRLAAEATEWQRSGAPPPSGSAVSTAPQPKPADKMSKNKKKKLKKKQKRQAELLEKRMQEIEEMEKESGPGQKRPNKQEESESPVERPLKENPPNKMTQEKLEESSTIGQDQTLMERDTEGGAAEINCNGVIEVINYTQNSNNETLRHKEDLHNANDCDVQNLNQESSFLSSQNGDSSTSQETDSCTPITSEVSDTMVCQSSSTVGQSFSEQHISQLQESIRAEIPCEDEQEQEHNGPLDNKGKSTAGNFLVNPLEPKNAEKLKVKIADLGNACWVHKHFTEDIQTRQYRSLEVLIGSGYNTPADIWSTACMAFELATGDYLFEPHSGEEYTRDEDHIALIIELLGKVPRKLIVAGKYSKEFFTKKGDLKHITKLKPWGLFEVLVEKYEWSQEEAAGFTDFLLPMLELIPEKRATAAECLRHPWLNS
Sequence of Aurora kinase B (Homo sapiens) (Q96GD4 whole entry): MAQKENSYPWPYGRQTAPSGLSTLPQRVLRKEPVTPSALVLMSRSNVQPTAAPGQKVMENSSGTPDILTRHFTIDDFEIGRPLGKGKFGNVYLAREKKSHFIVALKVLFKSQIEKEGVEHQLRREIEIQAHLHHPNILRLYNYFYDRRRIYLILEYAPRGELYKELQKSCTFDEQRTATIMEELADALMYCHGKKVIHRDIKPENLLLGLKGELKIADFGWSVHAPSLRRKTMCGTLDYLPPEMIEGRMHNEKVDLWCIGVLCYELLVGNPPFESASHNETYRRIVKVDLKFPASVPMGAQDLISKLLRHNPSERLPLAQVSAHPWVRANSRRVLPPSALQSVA
Sequence of Serine/threonine-protein kinase MRCK gamma (Homo sapiens) (Q6DT37 whole entry): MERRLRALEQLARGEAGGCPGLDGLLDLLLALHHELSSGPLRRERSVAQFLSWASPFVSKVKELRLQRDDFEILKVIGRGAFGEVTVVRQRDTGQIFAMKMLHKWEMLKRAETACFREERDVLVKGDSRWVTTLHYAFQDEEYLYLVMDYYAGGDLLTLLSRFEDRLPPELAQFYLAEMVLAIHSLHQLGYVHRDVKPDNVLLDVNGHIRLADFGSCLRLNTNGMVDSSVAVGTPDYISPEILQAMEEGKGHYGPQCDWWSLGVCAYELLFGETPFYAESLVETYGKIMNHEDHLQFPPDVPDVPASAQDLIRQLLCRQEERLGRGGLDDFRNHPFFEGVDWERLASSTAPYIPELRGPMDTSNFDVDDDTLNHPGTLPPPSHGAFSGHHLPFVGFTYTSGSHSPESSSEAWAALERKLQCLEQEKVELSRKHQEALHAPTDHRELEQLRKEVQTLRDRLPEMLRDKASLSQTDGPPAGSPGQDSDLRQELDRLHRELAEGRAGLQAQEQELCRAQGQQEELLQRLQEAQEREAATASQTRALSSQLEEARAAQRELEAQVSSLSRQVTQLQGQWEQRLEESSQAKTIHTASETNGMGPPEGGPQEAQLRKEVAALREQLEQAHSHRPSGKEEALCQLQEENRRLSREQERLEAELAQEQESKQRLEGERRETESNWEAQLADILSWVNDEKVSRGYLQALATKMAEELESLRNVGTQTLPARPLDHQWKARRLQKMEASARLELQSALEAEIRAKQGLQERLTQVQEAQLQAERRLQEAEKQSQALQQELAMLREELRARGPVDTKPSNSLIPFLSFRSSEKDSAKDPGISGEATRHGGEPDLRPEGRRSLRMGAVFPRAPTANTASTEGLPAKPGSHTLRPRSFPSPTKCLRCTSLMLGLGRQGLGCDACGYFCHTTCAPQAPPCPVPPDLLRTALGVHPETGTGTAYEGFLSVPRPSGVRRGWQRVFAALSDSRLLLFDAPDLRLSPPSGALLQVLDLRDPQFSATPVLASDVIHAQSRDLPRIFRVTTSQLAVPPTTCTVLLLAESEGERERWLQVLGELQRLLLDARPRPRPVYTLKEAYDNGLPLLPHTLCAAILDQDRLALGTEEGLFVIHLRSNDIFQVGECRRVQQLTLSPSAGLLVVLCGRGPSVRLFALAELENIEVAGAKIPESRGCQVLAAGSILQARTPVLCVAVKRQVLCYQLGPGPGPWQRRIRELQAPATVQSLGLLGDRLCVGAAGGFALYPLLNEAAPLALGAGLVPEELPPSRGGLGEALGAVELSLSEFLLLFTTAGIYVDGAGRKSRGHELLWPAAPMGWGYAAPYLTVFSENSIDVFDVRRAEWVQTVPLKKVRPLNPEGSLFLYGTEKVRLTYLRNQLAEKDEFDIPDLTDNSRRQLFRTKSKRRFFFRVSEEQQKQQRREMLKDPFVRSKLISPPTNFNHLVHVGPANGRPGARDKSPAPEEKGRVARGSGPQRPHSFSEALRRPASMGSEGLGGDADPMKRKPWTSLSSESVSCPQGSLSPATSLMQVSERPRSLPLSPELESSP
Sequence of Homeodomain-interacting protein kinase 1 (Homo sapiens) (Q86Z02 whole entry, looked up): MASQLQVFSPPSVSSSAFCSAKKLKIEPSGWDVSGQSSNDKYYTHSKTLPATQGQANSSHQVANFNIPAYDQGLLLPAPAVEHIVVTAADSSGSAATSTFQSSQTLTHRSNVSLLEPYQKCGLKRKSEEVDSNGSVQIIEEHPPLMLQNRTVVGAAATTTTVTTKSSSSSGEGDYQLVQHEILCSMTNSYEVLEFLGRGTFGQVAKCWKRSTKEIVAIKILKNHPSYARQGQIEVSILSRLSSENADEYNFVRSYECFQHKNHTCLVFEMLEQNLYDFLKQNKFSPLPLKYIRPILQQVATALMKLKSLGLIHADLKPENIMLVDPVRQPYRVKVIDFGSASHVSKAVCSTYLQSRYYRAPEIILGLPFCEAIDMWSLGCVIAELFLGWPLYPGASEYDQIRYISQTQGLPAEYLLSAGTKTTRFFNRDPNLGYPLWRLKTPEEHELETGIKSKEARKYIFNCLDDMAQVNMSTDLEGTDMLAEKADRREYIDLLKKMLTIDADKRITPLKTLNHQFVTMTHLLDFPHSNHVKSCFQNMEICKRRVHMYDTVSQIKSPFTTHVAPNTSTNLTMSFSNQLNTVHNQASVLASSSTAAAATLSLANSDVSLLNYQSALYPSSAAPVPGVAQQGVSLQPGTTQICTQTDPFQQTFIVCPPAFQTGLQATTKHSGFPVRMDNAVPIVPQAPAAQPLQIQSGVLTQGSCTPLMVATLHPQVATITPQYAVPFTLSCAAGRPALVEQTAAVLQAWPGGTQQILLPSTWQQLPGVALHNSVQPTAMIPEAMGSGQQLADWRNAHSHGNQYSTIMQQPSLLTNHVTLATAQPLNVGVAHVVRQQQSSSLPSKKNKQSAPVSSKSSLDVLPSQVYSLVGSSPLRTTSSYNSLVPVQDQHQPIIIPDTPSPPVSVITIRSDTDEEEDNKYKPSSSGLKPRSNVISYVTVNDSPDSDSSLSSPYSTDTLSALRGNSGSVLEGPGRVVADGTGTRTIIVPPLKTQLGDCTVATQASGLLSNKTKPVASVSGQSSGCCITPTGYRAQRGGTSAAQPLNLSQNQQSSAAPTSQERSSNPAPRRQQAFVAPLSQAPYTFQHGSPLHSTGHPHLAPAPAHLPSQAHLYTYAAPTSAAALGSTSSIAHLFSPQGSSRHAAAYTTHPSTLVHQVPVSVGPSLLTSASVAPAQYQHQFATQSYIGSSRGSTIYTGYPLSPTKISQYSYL

Row | Compound | Activity [1] [%] | Activity [2] [%] | Activity [3] [%] | Activity [4] [%] | Activity [5] [%] | Activity [6] [%] | Activity [7] [%] | Activity [8] [%]
1 | C[C@H](Nc1ncnc2nc[nH]c12)c1cc2cccc(Cl)c2c(=O)n1-c1ccccc1 | 95.6 | 94.1 | 102 | 103 | 94.9 | 109 | 94 | 103
2 | CC[C@H](Nc1ncnc2[nH]cnc12)c1nc2cccc(F)c2c(=O)n1-c1ccccc1 | 95.6 | 94.7 | 97.4 | 102 | 101 | 105 | 92.7 | 105
3 | CC(C)Oc1ccc(-c2nn([C@@H](C)c3oc4ccc(F)cc4c(=O)c3-c3cccc(F)c3)c3ncnc(N)c23)cc1F [UMBRALISIB] | 97.2 | 94.7 | 104 | 101 | 108 | 105 | 90.6 | 102

— ChEMBL document CHEMBL5715954, “Silencing c-Myc translation as a therapeutic strategy through targeting PI3Kδ and CK1ε in hematological malignancies” (Blood, 2017)
